The NIST ThermoML archive (doi:10.1016/j.jct.2007.05.011)
Numbers after ± are expanded uncertainties.

Assay: xn = mol fraction of the nth substance listed
Conditions: 101 kPa, Liquid; for mass density: Vibrating tube method

NCCO.O=CO [2-hydroxyethylammonium formate] + CCO
Conditions	mass density [kg/m3]	speed of sound [m/s]
288.15 K, x2 = 0	1183.57 ± 31	1733.9 ± 9.9
288.15 K, x2 = 0.058	1172.99 ± 31	1741.5 ± 9.8
288.15 K, x2 = 0.098	1161.05 ± 31	1723 ± 9.6
288.15 K, x2 = 0.193	1135.72 ± 30	1681.5 ± 9.3
288.15 K, x2 = 0.296	1110.04 ± 30	1639 ± 8.9
288.15 K, x2 = 0.399	1079.51 ± 30	1587.5 ± 8.6
288.15 K, x2 = 0.5	1044.58 ± 30	1529.7 ± 8.2
288.15 K, x2 = 0.598	1006.57 ± 30	1468.7 ± 7.8
288.15 K, x2 = 0.701	963.374 ± 30	1402.4 ± 7.5
288.15 K, x2 = 0.799	914.502 ± 30	1333.5 ± 7.1
288.15 K, x2 = 0.9	859.222 ± 30	1261.8 ± 6.7
288.15 K, x2 = 0.95	828.585 ± 30	1223.4 ± 6.5
290.65 K, x2 = 0	1181.81 ± 31	1727.4 ± 9.9
290.65 K, x2 = 0.058	1171.33 ± 31	1736.2 ± 9.8
290.65 K, x2 = 0.098	1159.38 ± 31	1717.6 ± 9.6
290.65 K, x2 = 0.193	1134.02 ± 30	1675.9 ± 9.3
290.65 K, x2 = 0.296	1108.32 ± 30	1633.2 ± 8.9
290.65 K, x2 = 0.399	1077.76 ± 30	1581.4 ± 8.6
290.65 K, x2 = 0.5	1042.78 ± 30	1523.3 ± 8.2
290.65 K, x2 = 0.598	1004.72 ± 30	1461.9 ± 7.8
290.65 K, x2 = 0.701	961.474 ± 30	1395.3 ± 7.4
290.65 K, x2 = 0.799	912.536 ± 30	1326 ± 7
290.65 K, x2 = 0.9	857.183 ± 30	1253.7 ± 6.7
290.65 K, x2 = 0.95	826.503 ± 30	1215 ± 6.5
293.15 K, x2 = 0	1180.04 ± 31	1721.3 ± 9.8
293.15 K, x2 = 0.058	1169.68 ± 31	1730.9 ± 9.8
293.15 K, x2 = 0.098	1157.72 ± 30	1712.2 ± 9.6
293.15 K, x2 = 0.193	1132.33 ± 30	1670.3 ± 9.3
293.15 K, x2 = 0.296	1106.6 ± 30	1627.4 ± 8.9
293.15 K, x2 = 0.399	1076 ± 30	1575.3 ± 8.5
293.15 K, x2 = 0.5	1040.98 ± 30	1517 ± 8.2
293.15 K, x2 = 0.598	1002.88 ± 30	1455.1 ± 7.8
293.15 K, x2 = 0.701	959.571 ± 30	1388.2 ± 7.4
293.15 K, x2 = 0.799	910.569 ± 30	1318.5 ± 7
293.15 K, x2 = 0.9	855.141 ± 30	1245.7 ± 6.7
293.15 K, x2 = 0.95	824.416 ± 30	1206.8 ± 6.5
295.65 K, x2 = 0	1178.27 ± 31	1715.1 ± 9.8
295.65 K, x2 = 0.058	1168.03 ± 31	1725.6 ± 9.7
295.65 K, x2 = 0.098	1156.05 ± 30	1706.8 ± 9.6
295.65 K, x2 = 0.193	1130.64 ± 30	1664.8 ± 9.2
295.65 K, x2 = 0.296	1104.87 ± 30	1621.7 ± 8.9
295.65 K, x2 = 0.399	1074.24 ± 30	1569.2 ± 8.5
295.65 K, x2 = 0.5	1039.18 ± 30	1510.6 ± 8.1
295.65 K, x2 = 0.598	1001.03 ± 30	1448.4 ± 7.8
295.65 K, x2 = 0.701	957.67 ± 30	1381.1 ± 7.4
295.65 K, x2 = 0.799	908.602 ± 30	1311 ± 7
295.65 K, x2 = 0.9	853.093 ± 30	1237.8 ± 6.6
295.65 K, x2 = 0.95	822.326 ± 30	1198.5 ± 6.4
298.15 K, x2 = 0	1176.49 ± 31	1709 ± 9.8
298.15 K, x2 = 0.058	1166.37 ± 31	1720.4 ± 9.7
298.15 K, x2 = 0.098	1154.38 ± 30	1701.5 ± 9.6
298.15 K, x2 = 0.193	1128.94 ± 30	1659.3 ± 9.2
298.15 K, x2 = 0.296	1103.15 ± 30	1615.9 ± 8.9
298.15 K, x2 = 0.399	1072.49 ± 30	1563.2 ± 8.5
298.15 K, x2 = 0.5	1037.38 ± 30	1504.3 ± 8.1
298.15 K, x2 = 0.598	999.182 ± 30	1441.7 ± 7.7
298.15 K, x2 = 0.701	955.767 ± 30	1374.1 ± 7.3
298.15 K, x2 = 0.799	906.63 ± 30	1303.6 ± 7
298.15 K, x2 = 0.9	851.045 ± 30	1229.8 ± 6.6
298.15 K, x2 = 0.95	820.231 ± 30	1190.2 ± 6.4
300.65 K, x2 = 0	1174.71 ± 31	1702.9 ± 9.8
300.65 K, x2 = 0.058	1164.71 ± 31	1715.2 ± 9.7
300.65 K, x2 = 0.098	1152.72 ± 30	1696.1 ± 9.6
300.65 K, x2 = 0.193	1127.25 ± 30	1653.7 ± 9.2
300.65 K, x2 = 0.296	1101.44 ± 30	1610.2 ± 8.8
300.65 K, x2 = 0.399	1070.73 ± 30	1557.2 ± 8.5
300.65 K, x2 = 0.5	1035.58 ± 30	1498 ± 8.1
300.65 K, x2 = 0.598	997.335 ± 30	1435.1 ± 7.7
300.65 K, x2 = 0.701	953.861 ± 30	1367 ± 7.3
300.65 K, x2 = 0.799	904.657 ± 30	1296.1 ± 6.9
300.65 K, x2 = 0.9	848.99 ± 30	1221.9 ± 6.6
300.65 K, x2 = 0.95	818.13 ± 30	1182 ± 6.4
303.15 K, x2 = 0	1172.94 ± 31	1696.8 ± 9.8
303.15 K, x2 = 0.058	1163.06 ± 31	1709.9 ± 9.7
303.15 K, x2 = 0.098	1151.05 ± 30	1690.8 ± 9.5
303.15 K, x2 = 0.193	1125.56 ± 30	1648.2 ± 9.2
303.15 K, x2 = 0.296	1099.72 ± 30	1604.4 ± 8.8
303.15 K, x2 = 0.399	1068.98 ± 30	1551.2 ± 8.4
303.15 K, x2 = 0.5	1033.79 ± 30	1491.7 ± 8.1
303.15 K, x2 = 0.598	995.485 ± 30	1428.4 ± 7.7
303.15 K, x2 = 0.701	951.952 ± 30	1360 ± 7.3
303.15 K, x2 = 0.799	902.677 ± 30	1288.7 ± 6.9
303.15 K, x2 = 0.9	846.93 ± 30	1214 ± 6.5
303.15 K, x2 = 0.95	816.023 ± 30	1173.8 ± 6.3
305.65 K, x2 = 0	1171.16 ± 31	–
305.65 K, x2 = 0.058	1161.41 ± 31	–
305.65 K, x2 = 0.098	1149.39 ± 30	–
305.65 K, x2 = 0.193	1123.87 ± 30	–
305.65 K, x2 = 0.296	1098 ± 30	–
305.65 K, x2 = 0.399	1067.22 ± 30	–
305.65 K, x2 = 0.5	1031.98 ± 30	–
305.65 K, x2 = 0.598	993.634 ± 30	–
305.65 K, x2 = 0.701	950.042 ± 30	–
305.65 K, x2 = 0.799	900.694 ± 30	–
305.65 K, x2 = 0.9	844.863 ± 30	–
305.65 K, x2 = 0.95	813.907 ± 30	–
